Conditions: pH 7.4
Experimental: HFA-exposed TFF ITZ powder (1 mg) was added to 50 mL of dissolution media to yield an initial drug loading of 20 μg/mL. Sample aliquots (1.5 mL) were taken from the dissolution vessels at various time points. The aliquots were filtered immediately using a 0.2 μm syringe filter. […] TFF ITZ powder that had been previously exposed to HFA 227 (1 mg) was added to the dissolution media (50 mL) to achieve an initial loading of 20 μg ITZ/mL. All samples were filtered with 0.2 μm pore size filters.

Q: With `CCC(C)n1ncn(-c2ccc(N3CCN(c4ccc(OCC5COC(Cn6cncn6)(c6ccc(Cl)cc6Cl)O5)cc4)CC3)cc2)c1=O` (stereo not shown) [crystalline ITZ, itraconazole] as the molecule, how does the equilibrium solubility read?
A: 1.4 µg/mL
